Measured values taken from patent publication US6812230B2, “Non-peptide CCR1 receptor antagonists for the treatment of progressive renal fibrosis” (Schering Aktiengesellschaft, priority 2001, dated 2004).

Tests used:
[1] = tested on: renal CCR1, CCR2, CCR5 and collagen I mRNA; assay: Mouse UUO model: renal chemokine receptor and collagen I mRNA expression by real-time quantitative RT-PCR; assay type: in vivo, C57BL/6 mice; details: 10 days following UUO
Experimental: (§1) Contralateral kidneys served as intraindividual controls.
From each mouse, a specimen of both kidneys was snap frozen in liquid nitrogen and stored at −80° C. Total RNA was prepared as described in Chomczynski, P. and Sacci, N., Anal. Biochem. (1987), Vol. 162, pp. 156-159. The RNA pellet was air-dried, dissolved in DEPC-treated water, and stored at −80° C. One μg of total RNA was subjected to random-primed (Hexamer, Roche) reverse transcription at 42° C. for 1 hour using a modified MMLV reverse transcriptase (Superscript, Life Technologies). Real time RT-PCR was performed on a TaqMan ABI 7700 Sequence Detection System (PE Biosystems) using a heat-activated Taq DNA polymerase (Amplitaq Gold, PE Biosystems). Thermal cycler conditions contained holds at 50° C. for 2 minutes and 95° C. for 10 minutes followed by 40 cycles of 95° C. for 15 seconds and 60° C. for 60 seconds. GAPDH was used as reference gene. The following oligonucleotide primers (300 nM) and probes (100 nM) (PE Biosystems) were used: (a) murine collagen 1α1 (gb X54876; bp 1984-2102); forward primer: 5′-[…]-3′ (SEQ ID NO: 1); reverse primer: 5′-[…]-3′ (SEQ ID NO: 2); internal fluorescence labeled probe (FAM): 5′-[…]-3′ (SEQ ID NO: 3); (b) murine GAPDH (gb M32599, bp 730-836); forward primer: 5′-[…]-3′ (SEQ ID NO: 4); reverse primer: 5′-[…]-3′ (SEQ ID NO: 5); internal fluorescence labeled probe (VIC): 5′-[…]-3′ (SEQ ID NO: 6); (c) murine CCR1 (gb NM_009912, bp 487-586); forward primer: 5′-[…]-3′ (SEQ ID NO: 7); reverse primer: 5′-[…]-3′ (SEQ ID NO: 8); internal fluorescence labeled probe (T1): 5′-[…]-3′ (SEQ ID NO: 9); (d) murine CCR2 (gb NM_009915, bp 984-1095); forward primer: 5′-[…]-3′ (SEQ ID NO: 10); reverse primer: 5′-[…]-3′ (SEQ ID NO: 11); internal fluorescence labeled probe (T1, FAM): 5′-[…]-3′ (SEQ ID NO: 12); and (e) murine CCR5 (gb D83648, bp 1065-1191); forward primer: 5′-[…]-3′ (SEQ ID NO: 13); reverse primer: 5′-[…]-3′ (SEQ ID NO: 14); internal fluorescence labeled probe (T1, FAM): 5′-[…]-3′ (SEQ ID NO: 15).

collagen I protein = assay: Mouse UUO model: collagen I protein expression by Western blotting; assay type: in vivo, C57BL/6 mice; details: 10 days following UUO (UUO BX 1-10 d), Western blot
Experimental: as §1
From each mouse, a specimen of both kidneys was snap frozen in liquid nitrogen and stored at −80° C. Kidneys were homogenized in RIPA buffer (50 mM Tris-HCl, pH 8.0, 1% Nonidet P40, 0.5% sodium deoxycholate, 150 mM NaCl, 0.1% SDS, complete Protease-inhibitor tablet (Roche)). Extracted proteins were boiled in loading buffer for 10 minutes, resolved by 8% SDS-PAGE under reducing conditions and transferred to an Immobilon-P membrane (Millipore). After blocking, the filter was incubated with the rabbit polyclonal anti-collagen I antibody (1:1000 in blocking solution, Chemicon) and immune complexes were visualized using horseradish peroxidase-conjugated goat anti-rabbit antibody (1:5000 in blocking solution, Jackson ImmunoResearch) and then processed for detection by enhanced chemiluminescence (ECL, Amersham Pharmacia).

For C[C@@H]1CN(Cc2ccc(F)cc2)CCN1C(=O)COc1ccc(Cl)cc1NC(N)=O [BX471, (2R)-1-((4-chloro-2-(ureido)phenoxy)methyl)carbonyl-2-methyl-4-(4-fluorobenzyl)piperazine], which “renal collagen I mRNA expression in obstructed kidneys vs vehicle” value ([1]; p<0.05) is on record?
Its value is “significantly reduced”.

What about the “renal CCR5 mRNA expression in obstructed kidneys vs vehicle” value ([1]; p=0.003) of the same compound?
Its value is “significantly reduced”.

And the “renal CCR1 mRNA expression in obstructed kidneys vs vehicle” value ([1]; p=0.005)?
Its value is “significantly reduced”.

And the “renal CCR2 mRNA expression in obstructed kidneys vs vehicle” value ([1]; p=0.07)?
The value was “reduced, although this decrease did not reach statistical significance”.

What about the “collagen I protein in renal extracts from the obstructed kidneys vs vehicle” value (collagen I protein) of the same compound?
Its value is “decrease”.
